Key:
Test in all cases: Kinase profiling in a biochemical assay panel (mobility shift assays and ELISA), %-inhibition at 1 μM; selectivity entropy
[1] = molecular target: panel of more than 300 wild-type and mutant kinases (313 kinase panel) (Homo sapiens, UniProt Q9NQU5)
[2] = molecular target: panel of more than 300 wild-type and mutant kinases (313 kinase panel) (Homo sapiens, UniProt P49841); conditions: kinase GSK3β; compound at 1 μM
[3] = molecular target: panel of more than 300 wild-type and mutant kinases (313 kinase panel) (Homo sapiens, UniProt P10721, D816V)
[4] = molecular target: panel of more than 300 wild-type and mutant kinases (313 kinase panel) (Homo sapiens, UniProt P31751); conditions: kinase AKT2; 1 μM compound
[5] = molecular target: panel of more than 300 wild-type and mutant kinases (313 kinase panel) (Homo sapiens, UniProt P49759); conditions: kinase CLK1; 1 μM compound
[6] = molecular target: T1, panel of more than 300 wild-type and mutant kinases (313 kinase panel) (Homo sapiens, UniProt Q8NE63)
T1 sequence (Q8NE63 1-616): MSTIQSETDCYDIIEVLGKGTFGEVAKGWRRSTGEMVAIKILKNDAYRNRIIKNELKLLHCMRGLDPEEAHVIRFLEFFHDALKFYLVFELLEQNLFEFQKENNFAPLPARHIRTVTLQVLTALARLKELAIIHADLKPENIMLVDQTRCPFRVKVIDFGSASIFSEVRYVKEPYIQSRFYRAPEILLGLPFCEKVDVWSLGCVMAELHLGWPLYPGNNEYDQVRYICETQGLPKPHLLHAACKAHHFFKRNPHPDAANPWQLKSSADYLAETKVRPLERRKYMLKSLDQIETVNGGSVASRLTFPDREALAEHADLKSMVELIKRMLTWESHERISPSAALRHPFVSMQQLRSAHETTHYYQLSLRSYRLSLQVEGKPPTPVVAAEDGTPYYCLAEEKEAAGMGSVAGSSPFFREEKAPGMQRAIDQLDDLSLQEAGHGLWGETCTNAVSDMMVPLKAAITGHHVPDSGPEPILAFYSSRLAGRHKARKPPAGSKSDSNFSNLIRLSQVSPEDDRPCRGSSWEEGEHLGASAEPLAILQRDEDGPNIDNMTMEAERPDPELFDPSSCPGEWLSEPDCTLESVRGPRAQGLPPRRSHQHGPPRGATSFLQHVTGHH

[7] = molecular target: T2, panel of more than 300 wild-type and mutant kinases (313 kinase panel) (Homo sapiens, UniProt P29322); conditions: kinase EPHA8; compound at 1 μM
T2 sequence (P29322 28-1005): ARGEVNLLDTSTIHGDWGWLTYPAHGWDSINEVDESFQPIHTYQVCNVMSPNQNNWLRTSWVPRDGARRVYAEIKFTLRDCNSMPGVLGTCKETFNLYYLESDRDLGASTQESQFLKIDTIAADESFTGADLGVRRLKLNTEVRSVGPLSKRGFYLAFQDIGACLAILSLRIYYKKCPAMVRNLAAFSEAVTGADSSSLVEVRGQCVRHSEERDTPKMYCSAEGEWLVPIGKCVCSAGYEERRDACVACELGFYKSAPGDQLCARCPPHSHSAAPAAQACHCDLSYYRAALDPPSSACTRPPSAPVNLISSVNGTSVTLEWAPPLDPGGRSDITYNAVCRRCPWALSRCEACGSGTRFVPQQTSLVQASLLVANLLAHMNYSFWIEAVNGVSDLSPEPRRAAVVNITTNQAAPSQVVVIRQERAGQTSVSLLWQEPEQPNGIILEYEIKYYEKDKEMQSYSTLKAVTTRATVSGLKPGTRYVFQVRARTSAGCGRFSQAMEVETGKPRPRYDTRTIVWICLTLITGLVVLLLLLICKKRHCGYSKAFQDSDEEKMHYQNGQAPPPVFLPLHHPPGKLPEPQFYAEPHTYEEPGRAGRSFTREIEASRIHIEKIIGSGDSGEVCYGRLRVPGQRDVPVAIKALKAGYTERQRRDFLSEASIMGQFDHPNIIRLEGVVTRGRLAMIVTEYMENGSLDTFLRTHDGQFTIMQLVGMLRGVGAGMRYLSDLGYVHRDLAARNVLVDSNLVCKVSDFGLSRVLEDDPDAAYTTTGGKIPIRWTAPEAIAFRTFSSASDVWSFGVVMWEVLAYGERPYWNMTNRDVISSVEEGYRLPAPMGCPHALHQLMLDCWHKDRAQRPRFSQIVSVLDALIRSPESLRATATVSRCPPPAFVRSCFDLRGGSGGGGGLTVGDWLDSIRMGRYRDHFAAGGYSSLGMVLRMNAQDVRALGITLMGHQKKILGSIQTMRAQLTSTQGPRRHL

[8] = molecular target: panel of more than 300 wild-type and mutant kinases (313 kinase panel) (Homo sapiens, UniProt Q16654); conditions: kinase PDHK4; 1 μM
[9] = molecular target: panel of more than 300 wild-type and mutant kinases (313 kinase panel) (Homo sapiens, UniProt P41240)
[10] = molecular target: panel of more than 300 wild-type and mutant kinases (313 kinase panel) (Homo sapiens, UniProt P10721)
[11] = molecular target: panel of more than 300 wild-type and mutant kinases (313 kinase panel) (Homo sapiens, UniProt Q00535); conditions: kinase CDK5/p25; 1 μM compound
[12] = molecular target: panel of more than 300 wild-type and mutant kinases (313 kinase panel) (Homo sapiens, UniProt O96013)
[13] = kinase KIT(D816V), compound at 1 μM

Row | Compound | %-inhibition of PAK6 ([1]; kinase PAK6, 1 μM) | %-inhibition of GSK3β [2] | %-inhibition of KIT(D816V) [3, 13] | %-inhibition, AKT2 [4] | %-inhibition, CLK1 [5] | %-inhibition of HIPK4 ([6]; kinase HIPK4, compound at 1 μM) | %-inhibition of EPHA8 [7] | %-inhibition of PDHK4 [8] | %-inhibition of CSK ([9]; kinase CSK, compound at 1 μM) | %-inhibition of KIT ([10]; kinase KIT, compound at 1 μM) | %-inhibition, CDK5/p25 [11] | %-inhibition of PAK4 ([12]; kinase PAK4, 1 μM) | %-inhibition of HIPK4 ([6]; 1 µM) | %-inhibition of PAK6 ([1]; 1 µM) | %-inhibition of KIT(D816V) ([3]; 1 µM) | %-inhibition of CSK ([9]; 1 µM) | %-inhibition of KIT ([10]; 1 µM) | %-inhibition of PAK4 ([12]; 1 µM)
1 | CCCS(=O)(=O)Nc1ccc(F)c(C(=O)c2c[nH]c3ncc(-c4ccc(Cl)cc4)cc23)c1F [vemurafenib] | -7% | 8% | 17% | -3% | 5% | -0.437% | 7% | -1.4% | 76% | 58% | 5% | -7% | – | – | – | – | – | –
2 | C[C@@H](Oc1cc(-c2cnn(C3CCNCC3)c2)cnc1N)c1c(Cl)ccc(F)c1Cl [crizotinib] | 3% | -2.11% | 21% | -2.67% | 13% | 31% | 82% | -3.76% | 9% | 16% | -8% | -5.56% | – | – | – | – | – | –
3 | CO[C@H]1C[C@@H]2CC[C@@H](C)[C@@](O)(O2)C(=O)C(=O)N2CCCC[C@H]2C(=O)O[C@H]([C@H](C)C[C@@H]2CC[C@@H](OCCO)[C@H](OC)C2)CC(=O)[C@H](C)/C=C(\C)[C@@H](O)[C@@H](OC)C(=O)[C@H](C)C[C@H](C)/C=C/C=C/C=C/1C [everolimus] | -1.22% | -6% | -4.44% | -3.78% | -7.39% | -6.34% | -3.63% | 2% | -7% | -10% | -26% | -4% | – | – | – | – | – | –
4 | CNC(=O)c1cc(Oc2ccc(NC(=O)Nc3ccc(Cl)c(C(F)(F)F)c3)c(F)c2)ccn1 [regorafenib] | -8% | 11% | 40% | -4% | 38% | 100% | 95% | -1.61% | 28% | 100% | -19% | -15% | – | – | – | – | – | –
5 | CC(=O)Nc1cccc(-n2c(=O)n(C3CC3)c(=O)c3c(Nc4ccc(I)cc4F)n(C)c(=O)c(C)c32)c1 [trametinib] | 8% | -15% | -4% | -8% | -0.618% | 2.78% | -8% | -1.65% | -2.83% | -0.648% | 19% | -0.675% | – | – | – | – | – | –
6 | N#CC[C@H](C1CCCC1)n1cc(-c2ncnc3[nH]ccc23)cn1 [ruxolitinib] | 3% | 10% | 36% | -3.68% | 33% | – | 0.379% | -6% | -0.827% | 3% | -16% | 0.371% | 3% | – | – | – | – | –
7 | Cc1cn(-c2cc(NC(=O)c3ccc(C)c(Nc4nccc(-c5cccnc5)n4)c3)cc(C(F)(F)F)c2)cn1 [nilotinib] | – | 10% | – | 12% | 81% | 37% | 98% | -4.31% | – | – | 0.83% | – | – | -102% | 43% | 78% | 96% | -21%

From publication PMC3961306, “Comparison of the Cancer Gene Targeting and Biochemical Selectivities of All Targeted Kinase Inhibitors Approved for Clinical Use” (PLoS ONE, 2014)
